Results from patent US6555528B2 (Board of Supervisors of Louisiana State University and …, priority 1999, dated 2003).
Read-outs that look alike come from different tables or passages of the source.

How the values were obtained:
[1] = molecular target: T1, biotin carboxylase from Escherichia coli (Escherichia coli, UniProt P24182); experiment: Biotin carboxylase inhibition assay (spectrophotometric, ADP production coupled to pyruvate kinase/lactate dehydrogenase); type: biochemical
T1 construct: histidine-tag (N); made in house; host or cells: E. coli BL21(DE3)pLysS
Method: It catalyzes the first partial reaction shown above as reaction (1). […] See S. Li et al., J. Biol. Chem., vol. 267, 855-863 (1992); and H. Kondo et al., Proc. Natl. Acad. Sci. USA, vol. 88, pp. 9730-9733 (1991).
Purification was performed with a histidine-tag attached to the amino terminus of a mutant form of the enzyme and nickel affinity chromatography as described in C. […] 38, pp. 3393-3400 (1999).
The amount of ADP was determined using pyruvate kinase and lactate dehydrogenase, and the oxidation of NADH was followed at 340 nm. Each measurement was carried out in a volume of 0.5 ml in 1 cm path length quartz cuvettes. The reaction mixture contained 10 units of pyruvate kinase, 18 units of lactate dehydrogenase, 0.5 mM phosphoenolpyruvate, 0.2 mM NADH, 8 mM MgCl2 and 100 mM HEPES at pH 8.0. For inhibition studies compound 1 was dissolved in water, and the pH adjusted to 8 with HCl. The concentration of compound 1 was assayed by phosphorus analysis using the method of B. Ames et al., J. Biol. Chem., vol. 235, pp. 769-775 (1960).

[2] = Water solubility (observation at synthesis); type: physicochemical

With `O=C(O)CCCC[C@@H]1SC[C@@H]2NC(=O)N[C@@H]21` [biotin] the “substrate inhibition of biotin carboxylase” value ([1]; biotin as substrate) was “noncompetitive substrate inhibitor”.

For `O=C(O)CCCCC1SCC2C1NC(=O)N2C(=O)CP(=O)(O)O` (stereo not drawn) [Compound 1, 5-(6,8-Diaza-7-oxo-6-(2-phosphonoacetyl)-3-thiabicyclo[3.3.0] Oct-2-yl) pentanoic acid], the Ki ([1]; competitive inhibition versus ATP, read-out: slope inhibition constant) was 8 mM, the Ki ([1]; preliminary characterization, 9 mM bicarbonate, 0.1 mM ATP, 100 mM biotin, pH 8.0, read-out: inhibition constant) was ~8 mM and the water solubility [2] was “water soluble”.

For `O=C(O)CP(=O)(O)O` [Phosphonoacetate], the “type of inhibition versus ATP” value ([1]; versus ATP) was “competitve inhibition” and the “type of inhibition versus bicarbonate” value ([1]; versus bicarbonate) was “noncompetitve inhibition”.
